From patent US9109001B2, “3′,5′-cyclic phosphoramidate prodrugs for HCV infection” (priority 2012, dated 2015)

Assays:
Huh-7 cells = assay: Release of active metabolite in Huh-7 cells; assay type: in vitro ADME, human; conditions: 10 μM test compound
Method: Assay for the Release of Active Metabolite in Huh-7 Cells. Huh-7 cells were plated in 1 mL culture medium (DMEM, containing glucose, L-glutamine and sodium pyruvate, 10% FBS, 100 IU/mL penicillin, 100 μg/mL streptomycin, 2 mM GlutaMAX, 1% MEM non-essential amino acids) at the concentration 0.8, 0.4 and 0.2 million cells per well on 6 well plates for 24, 48 and 72 hr treatment, respectively. Plated cells were incubated overnight at 37° C. in an incubator.
The following morning test compound was diluted to 20 μM from a stock solution in DMSO in fresh culture medium pre-warmed to 37° C. and 1 mL of the solution/well was added to cells. A final medium volume per well was 2.0 mL, test compound concentration in well was 10 μM and final DMSO concentration was 0.1%.
After 24, 48 or 72 hr, the medium was carefully removed and cell monolayers were washed twice with 2 mL ice-cold PBS per well. Following the last wash, all PBS was carefully removed and 1.0 mL of extraction solution (ice-cold 70% methanol) added. The plate was tightly covered with Parafilm, plastic plate cover and Parafilm again and an intracellular content was extracted at −20° C. for 24 hr.
After 24 hr extracts were transferred into polypropylene microfuge tubes and dry on a refrigerated centrivap concentrator. Dry residues were reconstituted in 250 μL of HPLC-grade water and centrifuged at 16,000×g for 10 min. Aliquots (100 μL each) of the supernatants were transferred into a 96 well plate and internal standard (4 ng/mL final concentration) was added as the internal standard (IS) for LC-MS/MS analysis.

[1] = Cytotoxicity evaluation (CellTiter-Blue Cell Viability Assay); assay type: cell-based, human; conditions: human, Zluc cells, read-out: HCV Replicon CC50
Zluc cells = assay: as above; assay type: cell-based, human; conditions: read-out: HCV Replicon CC50

| SMILES | Huh-7 TP Cmax (pmol/mill cells) (Huh-7 cells) | CC50 [1] [µM] | CC50 (Zluc cells) [µM] |
| --- | --- | --- | --- |
| CCOc1nc(N)nc2c1ncn2[C@@H]1O[C@@H]2COP(=O)(N[C@@H](C)C(=O)OC(C)C)O[C@H]2[C@@]1(C)F (single isomer, unassigned) [Compound 1 Diastereomer 1] | 283 | > 50 | – |
| CCOc1nc(N)nc2c1ncn2[C@@H]1O[C@@H]2COP(=O)(N[C@@H](C)C(=O)OC(C)C)O[C@H]2[C@@]1(C)F (single isomer, unassigned) [Compound 1 Diastereomer 2] | – | – | > 50 |
